Earlier results on one compound are cited in patent US20240207235A1, “NANOEMULSION FORMULATION FOR TREATING DISBETES MELLITUS (DM)” (KING FAISAL UNIVERSITY, priority 2022, published 2024).

The structures appear in SMILES notation.

As for `CCc1ccc(CCOc2ccc(CC3SC(=O)NC3=O)cc2)nc1` (stereo not shown) [PGZ, Pioglitazone], the solubility entry is on record as “low solubility”.
